Test [1] has as its target T1, human GPR119 (Homo sapiens, UniProt Q8TDV5).
T1 construct: host or cells: HEK293-CRE beta-lactamase cells
T1 sequence (Q8TDV5 1-335): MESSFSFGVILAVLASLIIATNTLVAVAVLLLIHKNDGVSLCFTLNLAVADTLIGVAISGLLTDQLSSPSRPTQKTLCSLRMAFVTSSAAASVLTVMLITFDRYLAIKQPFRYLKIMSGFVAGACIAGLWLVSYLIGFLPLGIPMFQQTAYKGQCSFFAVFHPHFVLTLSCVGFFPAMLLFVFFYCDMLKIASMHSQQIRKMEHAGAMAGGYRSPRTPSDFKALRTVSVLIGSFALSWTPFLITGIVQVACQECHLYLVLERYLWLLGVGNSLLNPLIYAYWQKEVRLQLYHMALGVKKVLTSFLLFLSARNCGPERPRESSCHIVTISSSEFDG
Briefly: GPR119 radioligand binding assay ([3H]Cmpd A, membranes of HEK 293FT cells over-expressing hGPR119). The settings on record: competition with 3H-Cmpd A; Ki from IC50 by Cheng-Prusoff; one line per run. Here is the method:
HEK 293FT cells (Invitrogen, Carlsbad, Calif.) were grown in a shake flask in 293Freestyle medium (Invitrogen) supplemented with 50 microg/mL neomycin and 10 mM HEPES (37 C, 8% carbon dioxide, shaking). The cells were centrifuged gently (approximately 500×g, 10 minutes) and the pellet resuspended in a mixture of Dulbecco's PBS(minus Mg++/−Ca++) supplemented with 18% fetal bovine serum (Sigma Aldrich) and P1 virus such that the multiplicity of infection (MOI) was 10 and the final cell density was 1.3×10^6/ml (total volume 2.5 liters). The cells were transferred to a 5 liter Wave Bioreactor Wavebag (Wave Technologies, MA) and incubated for 4 hours at 27 degrees Celsius (17 rocks/min, 7 degrees platform angle); at the end of the incubation period, an equal volume (2.5 liters) of 293Freestyle medium supplemented with 30 mM sodium butyrate (Sigma Aldrich) was added (final concentration=15 mM), and the cells were grown for 20 hours (37 degrees Celsius, 8% CO2 [0.2 liters/min}, 25 rocks/minute, 7 degrees platform angle). Cells were harvested via centrifugation (3,000×g, 10 minutes), washed once on DPBS (minus Ca++/Mg++), resuspended in 0.25M sucrose, 25 mM HEPES, 0.5 mM EDTA, pH 7.4 and frozen at −80 degrees Celsius.
The frozen cells were thawed on ice and centrifuged at 700×g (1400 rpm) for 10 minutes at 4 degrees Celsius. The cell pellet was resuspended in 20 ml phosphate-buffered saline, and centrifuged at 1400 rpm for 10 minutes. The cell pellet was then resuspended in homogenization buffer (10 mM HEPES (Gibco #15630), pH 7.5, 1 mM EDTA (BioSolutions, #BIO260-15), 1 mM EGTA (Sigma, #E-4378), 0.01 mg/ml benzamidine (Sigma #B 6506), 0.01 mg/ml bacitracin (Sigma #B 0125), 0.005 mg/ml leupeptin (Sigma #L 8511), 0.005 mg/ml aprotinin (Sigma #A 1153)) and incubated on ice for 10 minutes. Cells were then lysed with 15 gentle strokes of a tight-fitting glass Dounce homogenizer. The homogenate was centrifuged at 1000×g (2200 rpm) for 10 minutes at 4 degrees Celsius. The supernatant was transferred into fresh centrifuge tubes on ice. The cell pellet was resuspended in homogenization buffer, and centrifuged again at 1000×g (2200 rpm) for 10 minutes at 4 degrees Celsius after which the supernatant was removed and the pellet resuspended in homogenization buffer. This process was repeated a third time, after which the supernatants were combined, Benzonase (Novagen #71206) and MgCl2 (Fluka #63020) were added to final concentrations of 1 U/ml and 6 mM, respectively, and incubated on ice for one hour. The solution was then centrifuged at 25,000×g (15000 rpm) for 20 minutes at 4 degrees Celsius, the supernatant was discarded, and the pellet was resuspended in fresh homogenization buffer (minus Benzonase and MgCl2). After repeating the 25,000×g centrifugation step, the final membrane pellet was resuspended in homogenization buffer and frozen at −80 degrees Celsius. The protein concentration was determined using the Pierce BCA protein assay kit (Pierce reagents A #23223 and B #23224).
Test compounds were serially diluted in 100% DMSO (J. T. Baker #922401). 2 microL of each dilution was added to appropriate wells of a 96-well plate (each concentration in triplicate). Unlabeled Cmpd A, at a final concentration of 10 microM, was used to determine non-specific binding.
^3H-Cmpd A was diluted in binding buffer (50 mM Tris-HCl, pH 7.5, (Sigma #T7443), 10 mM MgCl2 (Fluka 63020), 1 mM EDTA (BioSolutions #BIO260-15), 0.15% bovine serum albumin (Sigma #A7511), 0.01 mg/mL benzamidine (Sigma #B 6506), 0.01 mg/mL bacitracin (Sigma #B 0125), 0.005 mg/mL leupeptin (Sigma #L 8511), 0.005 mg/mL aprotinin (Sigma #A 1153)) to a concentration of 60 nM, and 100 microL added to all wells of 96-well plate (Nalge Nunc #267245).
Membranes expressing GPR119 were thawed and diluted to a final concentration of 20 μg/100 microL per well in Binding Buffer, and 100 microL of diluted membranes were added to each well of 96-well plate. […]

Test [2] deals with T1, human GPR119. Briefly: cAMP functional assay (HTRF, hGPR119 HEK-CRE beta-lactamase cells). Type of test: cell-based. As for the experimental part: GPR119 agonist activity was also determined with a cell-based assay utilizing an HTRF (Homogeneous Time-Resolved Fluorescence) cAMP detection kit (cAMP dynamic 2 Assay Kit; Cis Bio cat #62AM4PEC) that measures cAMP levels in the cell. The method is a competitive immunoassay between native cAMP produced by the cells and the cAMP labeled with the dye d2. The tracer binding is visualized by a Mab anti-cAMP labeled with Cryptate. The specific signal (i.e. energy transfer) is inversely proportional to the concentration of cAMP in either standard or sample.
Specifically, hGPR119HEK-CRE beta-lactamase cells (Invitrogen 2.5×10^7/ml; the same cell line used in the beta-lactamase assay described above) are removed from cryopreservation and diluted in growth medium (Dulbecco's modified Eagle medium high glucose (DMEM; Gibco Cat #11995-065), 1% charcoal dextran treated fetal bovine serum (CD serum; HyClone Cat #SH30068.03), 1×MEM Nonessential amino acids (Gibco Cat #15630-080) and 25 mM HEPES pH 7.0 (Gibco Cat #15630-080)). The cell concentration was adjusted to 1.5×10^5 cells/ml and 30 mls of this suspension was added to a T-175 flask and incubated at 37 degrees Celsius in a humidified environment in 5% carbon dioxide. After 16 hours (overnight), the cells were removed from the T-175 flask (by rapping the side of the flask), centrifuged at 800×g and then re-suspended in assay medium (1×HBSS+CaCl2+MgCl2 (Gibco Cat #14025-092) and 25 mM HEPES pH 7.0 (Gibco Cat #15630-080)). The cell concentration was adjusted to 6.25×10^5 cells/ml with assay medium and 8 μl of this cell suspension (5000 cells) was added to each well of a white Greiner 384-well, low-volume assay plate (VWR cat #82051-458).
Varying concentrations of each compound to be tested were diluted in assay buffer containing 3-isobutyl-1-methylxanthin (IBMX; Sigma cat #15879) and added to the assay plate wells in a volume of 2 microL (final IBMX concentration was 400 microM and final DMSO concentration was 0.58%). Following 30 minutes incubation at room temperature, 5 microL of labeled d2 cAMP and 5 microL of anti-cAMP antibody (both diluted 1:20 in cell lysis buffer; as described in the manufacturers assay protocol) were added to each well of the assay plate. The plates were then incubated at room temperature and after 60 minutes, changes in the HTRF signal were read with an Envision 2104 multilabel plate reader using excitation of 330 nm and emissions of 615 and 665 nm. Raw data were converted to nM cAMP by interpolation from a cAMP standard curve (as described in the manufacturer's assay protocol) and EC50 determinations were made from an agonist-response curves analyzed with a curve fitting program using a 4-paramter logistic dose response equation.
(In general: In TR-FRET formats the signal depends on donor and acceptor labels being close together.)

The target of test [3] is T1, human GPR119. Nature of the test: Beta-lactamase functional assay (hGPR119 HEK293-CRE beta-lactamase reporter). The format is cell-based. As for the experimental part: The assay for GPR119 agonists utilizes a cell-based (hGPR119 HEK293-CRE beta-lactamase) reporter construct where agonist activation of human GPR119 is coupled to beta-lactamase production via a cyclic AMP response element (CRE). GPR119 activity is then measured utilizing a FRET-enabled beta-lactamase substrate, CCF4-AM (Live Blazer FRET-B/G Loading kit, Invitrogen cat #K1027). Specifically, hGPR119-HEK-CRE-beta-lactamase cells (Invitrogen 2.5×10^7/mL) were removed from liquid nitrogen storage, and diluted in plating medium (Dulbecco's modified Eagle medium high glucose (DMEM; Gibco Cat #11995-065), 10% heat inactivated fetal bovine serum (HIFBS; Sigma Cat #F4135), 1×MEM Nonessential amino acids (Gibco Cat #15630-080), 25 mM HEPES pH 7.0 (Gibco Cat #15630-080), 200 nM potassium clavulanate (Sigma Cat #P3494). The cell concentration was adjusted using cell plating medium and 50 microL of this cell suspension ([…]) was added into each well of a black, clear bottom, poly-d-lysine coated 384-well plate (Greiner Bio-One cat #781946) and incubated at 37 degrees Celsius in a humidified environment containing 5% carbon dioxide. After 4 hours the plating medium was removed and replaced with 40 microL of assay medium (Assay medium is plating medium without potassium clavulanate and HIFBS). Varying concentrations of each compound to be tested was then added in a volume of 10 microL (final DMSO≦0.5%) and the cells were incubated for 16 hours at 37 degrees Celsius in a humidified environment containing 5% carbon dioxide. Plates were removed from the incubator and allowed to equilibrate to room temperature for approximately 15 minutes. 10 microL of 6×CCF4/AM working dye solution (prepared according to instructions in the Live Blazer FRET-B/G Loading kit, Invitrogen cat #K1027) was added per well and incubated at room temperature for 2 hours in the dark. Fluorescence was measured on an EnVision fluorimetric plate reader, excitation 405 nm, emission 460 nm/535 nm. EC50 determinations were made from agonist-response curves analyzed with a curve fitting program using a 4-parameter logistic dose-response equation.

The mark [4] stands for this setting: hGPR119 HEK-CRE beta-lactamase cells, HTRF cAMP, 30 minutes, one line per run, read-out: Human cAMP Functional EC50.
The mark [5] stands for this setting: percent of maximal activity relative to standard GPR119 agonist (WO2005121121) at 10 μM, one line per run, read-out: Intrinsic Activity* (%) (cAMP).

Several values for one entry are separate records, joined by “and”; a condition that tells them apart may be missing. Equal entries are not always repeated. A value given as a limit tells only on which side of the number the result lay.

As a reminder, the Ki is a measure of affinity in units of concentration, obtained from inhibition or displacement. The low end stands for tighter binding, the high end for weaker binding. In general, EC50 refers to the midpoint of the concentration-response curve. As for `Cc1c(O[C@H]2[C@@H]3COC[C@H]2CN(C(=O)OC2(C)CC2)C3)ncnc1N1Cc2cnn(C)c2C1` [Example 10, 1-Methylcyclopropyyl (9-anti)-9-{[5-methyl-6-(1-methyl-4,6-dihydropyrrolo[3,4-c]pyrazol-5(1H)-yl)pyrimidin-4-yl]oxy}-3-oxa-7-azabicyclo[3.3.1]nonane-7-carboxylate], affinity on human GPR119 [1] was put at a Ki of 26 nM. In addition, the EC50 at human GPR119 [2] (setting [4]) was 239 nM and 108 nM.
As for `CC(C)OC(=O)N1CCC(Oc2cc(N3Cc4cnn(C)c4C3)ncn2)CC1` [Example 1, Isopropyl 4-{[6-(1-methyl-4,6-dihydropyrrolo[3,4-c]pyrazol-5(1H)-yl)pyrimidin-4-yl]oxy}piperidine-1-carboxylate], the EC50 at human GPR119 [2] (**the curve was extrapolated to 100% to calculate an EC50, read-out: Human cAMP Functional EC50 (nM), curve extrapolated to 100%) was 7500 nM; at human GPR119 [2] (setting [4]), > 10000 nM; on human GPR119 [3] (**the curve was extrapolated to 100% to calculate an EC50, read-out: Human B-lactamase Functional EC50 (nM), curve extrapolated to 100%), 9220 nM; on human GPR119 [3] (hGPR119 HEK293-CRE beta-lactamase cells, 16 hours incubation, one line per run, read-out: Human B-lactamase Functional EC50), 3850 nM. In addition, the Emax at human GPR119 [2] (**the curve was extrapolated to 100% to calculate an EC50, read-out: Intrinsic Activity* (%) (cAMP), curve extrapolated to 100%) was 100%; on human GPR119 [3] (**the curve was extrapolated to 100% to calculate an EC50, read-out: Intrinsic Activity* (%) (B-lactamase), curve extrapolated to 100%), 100%; on human GPR119 [3] (percent of maximal activity relative to standard GPR119 agonist (WO2005121121) at 10 microM, one line per run, read-out: Intrinsic Activity* (%) (B-lactamase)), 116%.
As to `Cc1c(O[C@H]2CCN(C(=O)OC(C)C)C[C@H]2F)ncnc1N1Cc2cnn(C)c2C1` (racemic) [Example 13, 1-Isopropyl (3,4-cis)-3-fluoro-4-{[5-methyl-6-(1-methyl-4,6-dihydropyrrolo[3,4-c]pyrazol-5(1H)-yl)pyrimidin-4-yl]oxy}piperidine-1-carboxylate], the EC50 at human GPR119 [2] (setting [4]) was determined as 18 nM. The Emax on human GPR119 [2] (setting [5]) worked out at 36%.
For the compound `Cc1c(OC2CCN(C(=O)OC3(C)CC3)CC2)ncnc1N1Cc2cnn(C)c2C1` [Example 5, 1-Methylcyclopropyl 4-{[5-methyl-6-(1-methyl-4,6-dihydropyrrolo[3,4-c]pyrazol-5(1H)-yl)pyrimidin-4-yl]oxy}piperidine-1-carboxylate], on human GPR119 [2] (setting [4]), the EC50 was found to be 118 nM. Moreover, on human GPR119 [2] (setting [5]), the Emax came out at 82%.

The values above are taken from patent publication US20130072427A1, “GPR 119 MODULATORS” (Pfizer Inc., priority 2009, published 2013).
